According to patent publication US20240383904A1, “HETEROCYCLIC COMPOUNDS” (Hoffmann-La Roche Inc., priority 2021, published 2024):

Molecular target: T1, MAGL (Homo sapiens, UniProt Q99685)
T1 sequence (Q99685 1-303): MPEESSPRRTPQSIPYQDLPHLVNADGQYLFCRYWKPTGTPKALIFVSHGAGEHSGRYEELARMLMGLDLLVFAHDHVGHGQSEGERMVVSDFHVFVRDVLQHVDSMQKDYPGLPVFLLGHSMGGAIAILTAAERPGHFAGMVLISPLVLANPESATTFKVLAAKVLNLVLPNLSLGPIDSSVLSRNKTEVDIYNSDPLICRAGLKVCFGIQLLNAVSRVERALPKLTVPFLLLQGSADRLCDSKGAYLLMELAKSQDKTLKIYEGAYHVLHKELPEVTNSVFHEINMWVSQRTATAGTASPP
Assay: 2-AG assay: MAGL inhibitory activity by hydrolysis of 2-arachidonoylglycerol to arachidonic acid, followed by mass spectrometry
Format: biochemical
Conditions: 15 min preincubation, 30 min reaction at RT, 8 μM 2-arachidonoylglycerol

Row | IC50 | SMILES
1 | 1240 nM | O=C1COCC2(CN(C(=O)N3CC4(CCN(Cc5ccc(C(F)(F)F)nc5)C4)C3)C2)N1 [Example 240, 2-[7-[[6-(trifluoromethyl)-3-pyridyl]methyl]-2,7-diazaspiro[3.4]octane-2-carbonyl]-8-oxa-2,5-diazaspiro[3.5]nonan-6-one]
2 | 928 nM | O=C1COCC2(CN(C(=O)N3CC4(CCN(Cc5ccc(C(F)(F)F)cn5)C4)C3)C2)N1 [Example 241, 2-[7-[[5-(trifluoromethyl)-2-pyridyl]methyl]-2,7-diazaspiro[3.4]octane-2-carbonyl]-8-oxa-2,5-diazaspiro[3.5]nonan-6-one]
3 | 0.06 nM | N#Cc1cc(C(F)(F)F)ccc1CC1CC2(C1)CN(C(=O)N1CC3(COC(=O)N3)C1)C2 [Example 242, 2-[[2-(6-oxo-7-oxa-2,5-diazaspiro[3.4]octane-2-carbonyl)-2-azaspiro[3.3]heptan-6-y]methyl]-5-(trifluoroemthyl)benzoni-trile]
4 | 0.6 nM | N#Cc1cc(CC2CC3(C2)CN(C(=O)N2CC4(COC(=O)N4)C2)C3)cnc1C(F)(F)F [Example 243, 5-[[2-(6-oxo-7-oxa-2,5-diazaspiro[3.4]octane-2-carbonyl)-2-azaspiro[3.3]heptan-6-yl]methyl]-2-(trifluoromethyl)pyridine-3-carbonitrile]
5 | 0.94 nM | NC(=O)c1ccc(CC2CC3(C2)CN(C(=O)N2CC4(COC(=O)N4)C2)C3)cc1OC(F)(F)F [Example 244, 4-[[2-(6-oxo-7-oxa-2,5-diazaspiro[3.4]octane-2-carbonyl)-2-azaspiro[3.3]heptan-6-yl]methyl]-2-(trifluoromethoxy)benz-amide]
6 | 1.51 nM | NC(=O)c1cc(CC2CC3(C2)CN(C(=O)N2CC4(COC(=O)N4)C2)C3)ccc1OC(F)(F)F [Example 245, 5-[[2-(6-oxo-7-oxa-2,5-diazaspiro[3.4]octane-2-carbonyl)-2-azaspiro[3.3]heptan-6-yl]methyl]-2-(trifluoromethoxy)benz-amide]
7 | 6.17 nM | Cn1nc(C(F)(F)F)cc1CC1CC2(C1)CN(C(=O)N1CC3(CCC(=O)N3)C1)C2 [Example 246, 2-[6-[[2-methyl-5-(trifluoromethyl)pyrazol-3-yl]methyl]-2-azaspiro[3.3]heptane-2-carbonyl]-2,5-diazaspiro[3.4]octan-6-one]
8 | 311 nM | N#Cc1cnn(CC2CC3(C2)CN(C(=O)N2CC4(CCC(=O)N4)C2)C3)c1 [Example 247, 1-[[2-(6-oxo-2,5-diazaspiro[3.4]octane-2-carbonyl)-2-azaspiro[3.3]heptan-6-yl]methyl]pyrazole-4-carbonitrile]
9 | 32.8 nM | O=C1CCC2(CN(C(=O)N3CC4(CC(Cc5cnn(CC(F)(F)F)c5)C4)C3)C2)N1 [Example 248, 2-[6-[[1-(2,2,2-trifluoroethyl)pyrazol-4-yl]methyl]-2-azaspiro[3.3]heptane-2-carbonyl]-2,5-diazaspiro[3.4]octan-6-one]
10 | 2.16 nM | O=C1CCC2(CN(C(=O)N3CC4(CC(Cn5ccc(C(F)(F)F)cc5=O)C4)C3)C2)N1 [Example 249, 2-[6-[[2-oxo-4-(trifluoromethyl)-1-pyridyl]methyl]-2-azaspiro[3.3]heptane-2-carbonyl]-2,5-diazaspiro[3.4]octan-6-one]
11 | 0.6 nM | N#Cc1ccc(CC2CC3(C2)CN(C(=O)N2CC4(CCC(=O)N4)C2)C3)c(F)c1 [Example 251, 3-fluoro-4-[[2-(6-oxo-2,5-diazaspiro[3.4]octane-2-carbonyl)-2-azaspiro[3.3]heptan-6-yl]methyl]benzonitrile]
12 | 9.83 nM | O=C1CCC2(CN(C(=O)N3CC4(CC(Cc5cncc(S(=O)(=O)C(F)(F)F)c5)C4)C3)C2)N1 [Example 252, 2-[6-[[5-(trifluoromethylsulfonyl)-3-pyridyl]methyl]-2-azaspiro[3.3]heptane-2-carbonyl]-2,5-diazaspiro[3.4]octan-6-one]
13 | 33.5 nM | O=C1COCC2(CN(C(=O)N3CC4(CC(Cc5cncc(S(=O)(=O)C(F)(F)F)c5)C4)C3)C2)N1 [Example 253, 2-[6-[[5-(trifluoromethylsulfonyl)-3-pyridyl]methyl]-2-azaspiro[3.3]heptane-2-carbonyl]-8-oxa-2,5-diazaspiro[3.5]nonan-6-one]
14 | 4.84 nM | O=C1COCC2(CN(C(=O)N3CC4(CC(Cc5cc(F)cc(S(=O)(=O)C(F)(F)F)c5)C4)C3)C2)N1 [Example 254, 2-[6-[[3-fluoro-5-(trifluoromethylsulfonyl)phenyl]methyl]-2-azaspiro[3.3]heptane-2-carbonyl]-8-oxa-2,5-diazaspiro[3.5]nonan-6-one]
15 | 4.19 nM | CS(=N)(=O)c1cc(CC2CC3(C2)CN(C(=O)N2CC4(CCC(=O)N4)C2)C3)cc(C(F)(F)F)c1 (stereo not drawn) [Example 255, 2-[6-[[3-(methylsulfonimidoyl)-5-(trifluoromethyl)phenyl]methyl]-2-azaspiro[3.3]heptane-2-carbonyl]-2,5-diazaspiro[3.4]octan-6-one]
16 | 26.9 nM | O=C1CCC2(CN(C(=O)N3CC4(CCN(Cc5cccc(S(=O)(=O)C(F)(F)F)c5)C4)C3)C2)N1 [Example 256, 2-[7-[[3-(trifluoromethylsulfonyl)phenyl]methyl]-2,7-diazaspiro[3.4]octane-2-carbonyl]-2,5-diazaspiro[3.4]octan-6-one]
17 | 16.5 nM | O=C1CCC2(CN(C(=O)N3CC4(CC(Cc5cc(C(F)F)[nH]n5)C4)C3)C2)N1 [Example 257, 2-[6-[[5-(difluoromethyl)-1H-pyrazol-3-yl]methyl]-2-azaspiro[3.4]heptane-2-carbonyl]-2,5-diazaspiro[3.4]octan-6-one]
18 | 25.9 nM | O=C1CCC2(CN(C(=O)N3CC4(CC(Cn5cc(C(F)(F)F)ccc5=O)C4)C3)C2)N1 [Example 259, 2-[6-[[2-oxo-5-(trifluoromethyl)-1-pyridyl]methyl]-2-azaspiro[3.3]heptane-2-carbonyl]-2,5-diazaspiro[3.4]octan-6-one]
19 | 80.7 nM | O=C1COCC2(CN(C(=O)N3CC4(CCN(Cc5cccc(S(=O)(=O)C(F)(F)F)c5)C4)C3)C2)N1 [Example 260, 2-[7-[[3-(trifluoromethylsulfonyl)phenyl]methyl]-2,7-diazaspiro[3.4]octane-2-carbonyl]-8-oxa-2,5-diazaspiro[3.5]nonan-6-one]
20 | 0.43 nM | N#Cc1ncc(CC2CC3(C2)CN(C(=O)N2CC4(COC(=O)N4)C2)C3)cc1C(F)(F)F [Example 261, 5-[[2-(6-oxo-7-oxa-2,5-diazaspiro[3.4]octane-2-carbonyl)-2-azaspiro[3.3]heptan-6-yl]methyl]-3-(trifluoromethyl)pyridine-2-carbonitrile]
21 | 1.06 nM | O=C1CCC2(CN(C(=O)N3CC4(CC(Cc5ccc(S(=O)(=O)C(F)(F)F)cn5)C4)C3)C2)N1 [Example 262, 2-[6-[[5-(trifluoromethylsulfonyl)-2-pyridyl]methyl]-2-azaspiro[3.3]heptane-2-carbonyl]-2,5-diazaspiro[3.4]octan-6-one]
22 | 183 nM | O=C1CCCC2(CN(C(=O)N3CC4(CC(Cc5ccc(S(=O)(=O)C(F)(F)F)cn5)C4)C3)C2)N1 [Example 263, 2-[6-[[5-(trifluoromethylsulfonyl)-2-pyridyl]methyl]-2-azaspiro[3.3]heptane-2-carbonyl]-2,5-diazaspiro[3.5]nonan-6-one]
23 | 5.51 nM | O=C1COCC2(CN(C(=O)N3CC4(CC(Cc5ccc(S(=O)(=O)C(F)(F)F)cn5)C4)C3)C2)N1 [Example 264, 2-[6-[[5-(trifluoromethylsulfonyl)-2-pyridyl]methyl]-2-azaspiro[3.3]heptane-2-carbonyl]-8-oxa-2,5-diazaspiro[3.5]nonan-6-one]
24 | 0.48 nM | N=S(=O)(c1ccc(CC2CC3(C2)CN(C(=O)N2CC4(CCC(=O)N4)C2)C3)c(F)c1)C(F)(F)F (stereo not drawn) [Example 265, 2-[6-[[2-fluoro-4-(trifluoromethylsulfoni-midoyl)phenyl]methyl]-2-azaspiro[3.3]heptane-2-carbonyl]-2,5-diazaspiro[3.5]octan-6-one]
25 | 1380 nM | O=C1CCCC2(CN(C(=O)N3CC4(CCN(Cc5cccc(S(=O)(=O)C(F)(F)F)c5)C4)C3)C2)N1 [Example 266, 2-[7-[[3-(trifluoromethylsulfonyl)phenyl]methyl]-2,7-diazaspiro[3.4]octane-2-carbonyl]-2,5-diazaspiro[3.5]nonan-6-one]
26 | 1240 nM | O=C1CCCC2(CN(C(=O)N3CC4(CN(Cc5ccc(S(=O)(=O)C(F)(F)F)cc5F)C4)C3)C2)N1 [Example 267, 2-[6-[[2-fluoro-4-(trifluoromethylsulfonyl)phenyl]methyl]-2,6-diazaspiro[3.3]heptane-2-carbonyl]-2,5-diazaspiro[3.5]nonan-6-one]
27 | 301 nM | CS(=O)(=O)c1cc(CC2CC3(C2)CN(C(=O)N2CC4(CCCC(=O)N4)C2)C3)cc(C(F)(F)F)c1 [Example 268, 2-[6-[[3-methylsulfonyl-5-(trifluoromethyl)phenyl]methyl]-2-azaspiro[3.3]heptane-2-carbonyl]-2,5-diazaspiro[3.5]nonan-6-one]
28 | 473 nM | O=C1CCCC2(CN(C(=O)N3CC4(CC(Cc5ccc(S(=O)(=O)C6CC6)cc5)C4)C3)C2)N1 [Example 269, 2-[6-[(4-cyclopropylsulfonylphe-nyl)methyl]-2-azaspiro[3.3]heptane-2-carbonyl]-2,5-diazaspiro[3.5]nonan-6-one]
29 | 72.4 nM | N#Cc1ccc(CC2CC3(C2)CN(C(=O)N2CC4(CCCC(=O)N4)C2)C3)cc1C(F)(F)F [Example 270]

Row | SMILES | IC50
30 | O=C1CCC2(CN(C(=O)N3CC4(CN(Cc5ccc(S(=O)(=O)C(F)(F)F)cc5F)C4)C3)C2)N1 [Example 258, 2-[6-[[2-fluoro-4-(trifluoromethylsulfonyl)phenyl]methyl]-2,6-diazaspiro[3.4]heptane-2-carbonyl]-2,5-diazaspiro[3.4]octan-6-one] | 18.6 nM
